Laboratory results published in US7960556B2, “Thiadiazole derivatives for the treatment of neuro-degenerative diseases” (NV reMYND, priority 2006, dated 2011).

Tested on: α-synuclein cytotoxicity in M17-SYNwt cells
Experiment: α-synuclein cytotoxicity assay: LDH leakage from paraquat-treated M17-SYNwt neuroblastoma cells;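 also: paraquat at 32 mM co-added with compound, 40 h exposure, LDH activity released into the culture medium measured, references are DMSO-only cells and paraquat plus DMSO cells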
Settings: Homo sapiens, Neuroblastoma cell; for Emax: read-out: % Inhib.

Compound | Emax [%] | EC50 [nM]
Cc1ccc(Cc2nsc(N3CCN(C(=O)c4ccc(C(C)(C)C)cc4)CC3)n2)cc1 [compound 183, 1-(4-tert-butylbenzoyl)-4-[3-(4-methylbenzyl)-1,2,4-thiadiazol-5-yl]piperazine] | 52 | 
CCOc1ccccc1N1CCN(c2nc(Cc3ccc(F)cc3)ns2)CC1 [compound 186, 1-(2-ethoxyphenyl)-4-[3-(4-fluorobenzyl)-1,2,4-thiadiazol-5-yl]piperazine] | 94 | 2050
Cc1ccc(Cc2nsc(N3CCN(S(=O)(=O)c4cccc5cccnc45)CC3)n2)cc1 [compound 70, 1-[quinoline-8-sulfonyl]-4-[3-(4-methylbenzyl)-1,2,4-thiadiazol-5-yl]piperazine] | 44 | 
Fc1ccc(Cc2nsc(N3CCN(Cc4ccc5c(c4)OCO5)CC3)n2)cc1 [compound 114, 1-(1,3-benzodioxol-5-ylmethyl)-4-[3-(4-fluorobenzyl)-1,2,4-thiadiazol-5-yl]piperazine] | 86 | 
COc1ccc(C(=O)N2CCN(c3nc(Cc4ccc(F)cc4)ns3)CC2C)c(OC)c1 (stereo not shown) [compound 136, 1-(2,4-dimethoxybenzoyl)-4-[3-(4-fluorobenzyl)-1,2,4-thiadiazol-5-yl]-2-methylpiperazine] | 83 | 340
Cc1ccc(NC(=O)N2CCN(c3nc(Cc4ccc(F)cc4)ns3)CC2C)c(C)c1 (stereo not shown) [compound 20, N-(2,4-dimethylphenyl)-4-[3-(4-fluorobenzyl)-1,2,4-thiadiazol-5-yl]-2-methylpiperazine-1-carboxamide] | 106 | 760
CC1CN(c2nc(Cc3ccc(F)cc3)ns2)CCN1C(=O)C(Cl)c1ccccc1 (stereo not shown) [compound 7, 1-[chloro(phenyl)acetyl]-4-[3-(4-fluorobenzyl)-1,2,4-thiadiazol-5-yl]-2-methylpiperazine] | 69 | 
CCc1ccc(C(=O)N2CCN(c3nc(Cc4ccc(F)cc4)ns3)CC2C)cc1 (stereo not shown) [compound 116, 1-(4-ethylbenzoyl)-4-[3-(4-fluorobenzyl)-1,2,4-thiadiazol-5-yl]-2-methylpiperazine] | 71 | 52.2
Cc1ccc(Cc2nsc(N3CCN(S(=O)(=O)c4ccc(C(C)(C)C)cc4)C(C)C3)n2)cc1 (stereo not shown) [compound 42, 1-[4-tert-butylphenylsulfonyl]-4-[3-(4-methylbenzyl)-1,2,4-thiadiazol-5-yl]-2-methylpiperazine] | 33 | 870
CC1CN(c2nc(Cc3ccc(F)cc3)ns2)CCN1S(=O)(=O)c1cccc(C(F)(F)F)c1 (stereo not shown) [compound 46, 1-[3-trifluorophenylsulfonyl]-4-[3-(4-fluorobenzyl)-1,2,4-thiadiazol-5-yl]-2-methylpiperazine] | 64 | 1340
COc1cccc(Cc2nsc(N3CCN(C(=O)c4ccc(Cl)cc4)C(C)C3)n2)c1 (stereo not shown) [compound 174, 1-(4-chlorobenzoyl)-4-[3-(3-methoxybenzyl)-1,2,4-thiadiazol-5-yl]-2-methylpiperazine] | 83 | 
CC1CN(c2nc(Cc3ccc(F)cc3)ns2)CCN1C(=O)Nc1ccc(F)cc1F (stereo not shown) [compound 23, N-(2,4-difluorophenyl)-4-[3-(4-fluorobenzyl)-1,2,4-thiadiazol-5-yl]-2-methylpiperazine-1-carboxamide] | 66 | 940
CC1CN(c2nc(Cc3ccc(F)cc3)ns2)CCN1C(=O)c1cccc(Br)c1 (stereo not shown) [compound 142, 1-(3-bromobenzoyl)-4-[3-(4-fluorobenzyl)-1,2,4-thiadiazol-5-yl]-2-methylpiperazine] | 72 | 500
COc1ccc(S(=O)(=O)N2CCN(c3nc(Cc4ccc(C)cc4)ns3)CC2C)cc1 (stereo not shown) [compound 60, 1-[4-methoxyphenylsulfonyl]-4-[3-(4-methylbenzyl)-1,2,4-thiadiazol-5-yl]-2-methylpiperazine] | 93 | 0.033
Cc1ccc(Cc2nsc(N3CCN(C(=O)c4ccc(Cl)cc4)CC3)n2)cc1 [compound 155, 1-(4-chlorobenzoyl)-4-[3-(4-methylbenzyl)-1,2,4-thiadiazol-5-yl]piperazine] | 76 | 1640
O=S(=O)(c1ccc2ccccc2c1)N1CCN(c2nc(Cc3ccc(Cl)cc3)ns2)CC1 [compound 52, 1-[2-naphtylsulfonyl]-4-[3-(4-chlorobenzyl)-1,2,4-thiadiazol-5-yl]piperazine] | 104 | 100
O=C(NCCN1CCN(c2nc(Cc3ccccc3)ns2)CC1)c1cccc(F)c1 [compound 106, 3-fluoro-N-{2-[4-[3-benzyl-1,2,4-thiadiazol-5-yl]piperazin-1-yl]ethyl}benzamide] | 49 | 
O=C(CCc1ccccc1)N1CCN(c2nc(Cc3ccc(F)cc3)ns2)CC1 [compound 90, 1-(3-phenylpropanoyl)-4-[3-(4-fluorobenzyl)-1,2,4-thiadiazol-5-yl]piperazine] | 73 | 1410
Cc1ccc(Cc2nsc(N3CCN(S(=O)(=O)c4cc(Cl)ccc4Cl)C(C)C3)n2)cc1 (stereo not shown) [compound 36, 1-[2,5-dichlorophenylsulfonyl]-4-[3-(4-methylbenzyl)-1,2,4-thiadiazol-5-yl]-2-methylpiperazine] | 52 | 100
Cc1ccc(Cc2nsc(N3CCN(S(=O)(=O)Cc4ccccc4)CC3)n2)cc1 [compound 77, 1-(benzylsulfonyl)-4-[3-(4-methylbenzyl)-1,2,4-thiadiazol-5-yl]piperazine] | 81 | 
O=C(NCCN1CCN(c2nc(Cc3ccc(F)cc3)ns2)CC1)NCc1ccccc1 [compound 110, N-benzyl-N′-{2-[4-[3-(4-fluorobenzyl)-1,2,4-thiadiazol-5-yl]piperazin-1-yl]ethyl}urea] | 77 | 
CC1CN(c2nc(Cc3ccc(F)cc3)ns2)CCN1S(=O)(=O)c1ccc(C(C)(C)C)cc1 (stereo not shown) [compound 54, 1-[4-tert-butylphenylsulfonyl]-4-[3-(4-fluorobenzyl)-1,2,4-thiadiazol-5-yl]-2-methylpiperazine] | 60 | 
O=C(Nc1ccccc1F)N1CCN(c2nc(Cc3ccc(F)cc3)ns2)CC1 [compound 16, N-(2-fluorophenyl)-4-[3-(4-fluorobenzyl)-1,2,4-thiadiazol-5-yl]piperazine-1-carboxamide] | 72 | 5680
CCc1ccc(S(=O)(=O)N2CCN(c3nc(Cc4ccc(F)cc4)ns3)CC2)cc1 [compound 197, 1-[4-ethylphenylsulfonyl]-4-[3-(4-fluoro-benzyl)-1,2,4-thiadiazol-5-yl]piperazine] | 84 | 535
O=C(/C=C/c1ccccc1)N1CCN(c2nc(Cc3ccc(Cl)cc3)ns2)CC1 [compound 88, [(2E)-3-phenylprop-2-enoyl]-4-[3-(4-chlorobenzyl)-1,2,4-thiadiazol-5-yl]piperazine] | 72 | 
Cc1ccc(Cc2nsc(N3CCN(S(=O)(=O)c4ccc5ccccc5c4)CC3)n2)cc1 [compound 65, 1-[2-naphtylsulfonyl]-4-[3-(4-methylbenzyl)-1,2,4-thiadiazol-5-yl]piperazine] | 78 | 39.3
Cc1ccc(Cc2nsc(N3CCN(S(=O)(=O)c4ccc(C(C)(C)C)cc4)CC3)n2)cc1 [compound 67, 1-[4-tert-butylphenylsulfonyl]-4-[3-(4-methylbenzyl)-1,2,4-thiadiazol-5-yl]piperazine] | 41 | 
